Legend:
Assay in all cases: relative viability (nuclei count vs DMSO), 5 days (fraction); higher = more cells survive
4EGI-1 + Linsitinib = compound: O=C(O)C(Cc1ccccc1[N+](=O)[O-])=NNc1nc(-c2ccc(Cl)c(Cl)c2)cs1 (mixture of isomers) [4EGI-1] + C[C@]1(O)C[C@@H](c2nc(-c3ccc4ccc(-c5ccccc5)nc4c3)c3c(N)nccn32)C1 [Linsitinib] (partner 1 µM)
Procedure, shortened: (§1)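 Relative viability is defined as nuclei in treated wells over nuclei in vehicle wells. Duplicate plates were run and medians reported. Lung cancer cell lines in 1536-well plates were dosed by pin tool one day after seeding, with one drug or with a fixed anchor-drug dose plus five library-drug doses (not always all listed) in √10 steps, and nuclei were counted after 5 days.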

XMD8-85 + Alpelisib = compound: CN1CCN(CC1)C2=CC(=C(C=C2)NC3=NC=C4C(=N3)N(C5=CC=CC=C5C(=O)N4C)C)OC [XMD8-85] + Cc1nc(NC(=O)N2CCC[C@H]2C(N)=O)sc1-c1ccnc(C(C)(C)C(F)(F)F)c1 [Alpelisib] (partner 2 µM)
Procedure, shortened: as §1

XMD8-85 + Olaparib = compound: CN1CCN(CC1)C2=CC(=C(C=C2)NC3=NC=C4C(=N3)N(C5=CC=CC=C5C(=O)N4C)C)OC [XMD8-85] + O=C(c1cc(Cc2n[nH]c(=O)c3ccccc23)ccc1F)N1CCN(C(=O)C2CC2)CC1 [Olaparib] (partner 8 µM)
Procedure, shortened: as §1

4EGI-1 + Bortezomib = compound: O=C(O)C(Cc1ccccc1[N+](=O)[O-])=NNc1nc(-c2ccc(Cl)c(Cl)c2)cs1 (mixture of isomers) [4EGI-1] + CC(C)C[C@H](NC(=O)[C@H](Cc1ccccc1)NC(=O)c1cnccn1)B(O)O [Bortezomib] (partner 0.002 µM)
Procedure, shortened: as §1

| Cell Line | relative viability (4EGI-1 + Linsitinib; first compound 0.5 µM) | relative viability (4EGI-1 + Linsitinib; first compound 1.581 µM) | relative viability (4EGI-1 + Linsitinib; first compound 5 µM) | relative viability (4EGI-1 + Linsitinib; first compound 15.81 µM) | relative viability (4EGI-1 + Linsitinib; first compound 50 µM) | relative viability (XMD8-85 + Alpelisib; first compound 0.08 µM) | relative viability (XMD8-85 + Alpelisib; first compound 0.253 µM) | relative viability (XMD8-85 + Alpelisib; first compound 0.8 µM) | relative viability (XMD8-85 + Alpelisib; first compound 2.53 µM) | relative viability (XMD8-85 + Alpelisib; first compound 8 µM) | relative viability (XMD8-85 + Olaparib; first compound 0.08 µM) | relative viability (XMD8-85 + Olaparib; first compound 0.253 µM) | relative viability (XMD8-85 + Olaparib; first compound 0.8 µM) | relative viability (XMD8-85 + Olaparib; first compound 2.53 µM) | relative viability (XMD8-85 + Olaparib; first compound 8 µM) | relative viability (4EGI-1 + Bortezomib; first compound 0.5 µM) | relative viability (4EGI-1 + Bortezomib; first compound 1.581 µM) | relative viability (4EGI-1 + Bortezomib; first compound 5 µM) | relative viability (4EGI-1 + Bortezomib; first compound 15.81 µM) | relative viability (4EGI-1 + Bortezomib; first compound 50 µM) |
| --- | --- | --- | --- | --- | --- | --- | --- | --- | --- | --- | --- | --- | --- | --- | --- | --- | --- | --- | --- | --- |
| EKVX | 1.12 | 0.859 | 0.964 | 0.755 | 0.882 | 0.776 | 0.996 | 0.935 | 0.986 | 0.899 | 0.756 | 0.83 | 0.998 | 0.898 | 0.901 | 1.09 | 0.965 | 1.06 | 1.04 | 1.04 |
| COR-L23 | 1.05 | 0.814 | 0.918 | 0.492 | 0.162 | 0.882 | 0.887 | 0.742 | 0.712 | 0.506 | 0.369 | 0.319 | 0.421 | 0.302 | 0.236 | 0.983 | 0.651 | 1.09 | 0.808 | 0.19 |
| SW 1573 | 1 | 0.669 | 0.917 | 0.741 | 0.961 | 0.917 | 0.596 | 0.745 | 0.615 | 0.663 | 0.496 | 0.48 | 0.546 | – | 0.341 | 1.4 | 1.06 | 0.972 | 0.948 | 0.822 |
| NCI-H1648 | – | – | – | – | – | – | – | – | – | – | 0.857 | 1.14 | 0.919 | 0.482 | 0.861 | – | – | – | – | – |
| COR-L 105 | 1.04 | 0.85 | 0.999 | 0.988 | 0.675 | – | 1.22 | 0.926 | 0.635 | 0.358 | 0.7 | – | 0.692 | 0.58 | 0.455 | 0.876 | 0.592 | 0.725 | 0.424 | 0.252 |

From the supplement of paper PMC10307832
